These results are taken from PubChem BioAssay AID192 (DTP/NCI, 2004).

The assay deals with BDF1 mice, B16 melanoma ip, median survival T/C. As to the kind of experiment: NCI In Vivo Anticancer Drug Screen. Data for tumor model B16 Melanoma (intraperitoneal) in B6D2F1 (BDF1) mice. The following applies: endpoint: median survival time, higher = longer survival. An outline of the steps:
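Compounds were tested in mice carrying transplantable tumors. Survival or tumor size was recorded, and each value is the treated-group measurement (T) divided by that of the vehicle-treated control group (C).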

[1] abbreviates: dose: 6.25 mg/kg/injection, schedule: Q01DX009 (ip), vehicle: saline with Tween-80.
Setting [2] is: dose: 100.0 mg/kg/injection, schedule: Q01DX009 (ip), vehicle: Klucel (hydroxypropylcellulose) (HPC).
The mark [3] stands for this setting: dose: 200.0 mg/kg/injection, schedule: Q01DX009 (ip), vehicle: Klucel (hydroxypropylcellulose) (HPC).
The mark [4] stands for this setting: dose: 100.0 mg/kg/injection, schedule: Q01DX009 (ip), vehicle: saline with Tween-80.
Where [5] appears, read: dose: 200.0 mg/kg/injection, schedule: Q01DX009 (ip), vehicle: saline with Tween-80.
[6] abbreviates: dose: 400.0 mg/kg/injection, schedule: Q01DX009 (ip), vehicle: saline with Tween-80.
[7] abbreviates: dose: 50.0 mg/kg/injection, schedule: Q01DX009 (ip), vehicle: saline with Tween-80.
The mark [8] stands for this setting: dose: 25.0 mg/kg/injection, schedule: Q01DX009 (ip), vehicle: Klucel (hydroxypropylcellulose) (HPC).
[9] abbreviates: dose: 50.0 mg/kg/injection, schedule: Q01DX009 (ip), vehicle: Klucel (hydroxypropylcellulose) (HPC).
[10] abbreviates: dose: 6.25 mg/kg/injection, schedule: Q01DX009 (ip), vehicle: saline.
[11] abbreviates: dose: 12.5 mg/kg/injection, schedule: Q01DX009 (ip), vehicle: saline.
The mark [12] stands for this setting: dose: 25.0 mg/kg/injection, schedule: Q01DX009 (ip), vehicle: saline with Tween-80.

“And” between values parts separate entries of the source, which are not always exact repeats. Equal values may be shown once. Toxic doses and inconclusive results are not listed.

As to `CC(=O)C1=C(O)C2(O)C(=O)c3c(c(C)c4ccc(C)c(O)c4c3O)CC2C(N)C1=O` (configuration not stated), the T/C (dose: 1.56 mg/kg/injection, schedule: Q01DX009 (ip), vehicle: saline with Tween-80) was 100 % of control; the T/C (dose: 3.13 mg/kg/injection, schedule: Q01DX009 (ip), vehicle: saline with Tween-80) was 95 % of control; the T/C (dose: 3.75 mg/kg/injection, schedule: Q01DX009 (ip), vehicle: saline + alcohol) was 103 % of control; the T/C under setting [1] is 100 % of control; the T/C (dose: 7.5 mg/kg/injection, schedule: Q01DX009 (ip), vehicle: saline + alcohol) was 105 % of control; the T/C (dose: 15.0 mg/kg/injection, schedule: Q01DX009 (ip), vehicle: saline + alcohol) was 114 % of control.

Take `CCOc1ccccc1NC(=O)CC(C)=O`: the T/C reads like this: under setting [2], 100 % of control; under setting [3], 97 % of control.

Regarding `COc1ccc(-c2nc3cc(Cl)ccc3c(=O)o2)cc1`, the T/C reads like this: under setting [2], 101 % of control; under setting [3], 115 % of control.

Regarding `O=C1C(Br)C2CCC1C2C(=O)O` (configuration not stated), the T/C was 111 % of control under setting [4], 94 % of control under setting [5] and 89 % of control under setting [6].

Regarding `c1ccc(OCCC[P+](c2ccccc2)(c2ccccc2)c2ccccc2)cc1`, the T/C was 107 % of control (dose: 5.0 mg/kg/injection, schedule: Q01DX009 (ip), vehicle: saline); 105 % of control (dose: 10.0 mg/kg/injection, schedule: Q01DX009 (ip), vehicle: saline); 95 % of control (dose: 20.0 mg/kg/injection, schedule: Q01DX009 (ip), vehicle: saline); 97 % of control (dose: 40.0 mg/kg/injection, schedule: Q01DX009 (ip), vehicle: saline).

Take `Cn1c(=O)[nH]c2nncnc2c1=O`: the T/C was 99 % of control (dose: 0.37 mg/kg/injection, schedule: Q01DX009 (ip), vehicle: water); 118 % of control (dose: 0.75 mg/kg/injection, schedule: Q01DX009 (ip), vehicle: water); 103 % of control (dose: 1.5 mg/kg/injection, schedule: Q01DX009 (ip), vehicle: water); 99 % of control (dose: 3.0 mg/kg/injection, schedule: Q01DX009 (ip), vehicle: water).

Regarding `COc1cc2c(ccc3c4cc(OC)c(OC)cc4c[n+](C)c23)cc1O`, the T/C is, setting by setting: under setting [7], 108 % of control; under setting [4], 97 % of control; under setting [5], 100 % of control.

On to `C=COCCCCCC(C)C`, for which the T/C is, setting by setting: under setting [8], 97 % of control; under setting [9], 102 % of control; under setting [2], 86 % of control and 91 % of control.

In the case of `CCOC(=O)C(NC(N)=O)C(=O)OCC`, the T/C by setting is: (dose: 50.0 mg/kg/injection, schedule: Q01DX009 (ip), vehicle: other) 104 % of control; (dose: 100.0 mg/kg/injection, schedule: Q01DX009 (ip), vehicle: other) 104 % of control; (dose: 200.0 mg/kg/injection, schedule: Q01DX009 (ip), vehicle: other) 103 % of control; (dose: 400.0 mg/kg/injection, schedule: Q01DX009 (ip), vehicle: other) 104 % of control.

As to `C/C(CCC(=O)O)=N\NC(N)=O`, the T/C under setting [4] was 88 % of control, the T/C under setting [5] was 88 % of control and the T/C under setting [6] is 100 % of control.

As to `CCN(CC)CCOC(=O)c1ccc(N)cc1`, the T/C by setting is: under setting [10], 100 % of control; under setting [11], 92 % of control; (dose: 25.0 mg/kg/injection, schedule: Q01DX009 (ip), vehicle: saline) 100 % of control; (dose: 50.0 mg/kg/injection, schedule: Q01DX009 (ip), vehicle: saline) 107 % of control; (dose: 100.0 mg/kg/injection, schedule: Q01DX009 (ip), vehicle: saline) 105 % of control.

Take `CCCCCCCCCNC(=O)Nc1cccc(Cl)c1C`: the T/C under setting [7] was 99 % of control and the T/C under setting [4] was 91 % of control.

Regarding `N#C/C(=C\c1c[nH]c2ccccc12)C(N)=O`, the T/C by setting is: under setting [4], 108 % of control; under setting [5], 108 % of control; under setting [6], 108 % of control.

In the case of `Cc1cc(OC(=O)c2ccc(N(C)C)cc2)ccc1[N+](=O)[O-]`, the T/C under setting [8] is 92 % of control, the T/C under setting [9] was 92 % of control and the T/C under setting [2] was 88 % of control.

For `NC(N)=Nc1ccc(C(=O)Nc2ccc([N+](=O)[O-])cc2)cc1`, the T/C by setting is: under setting [9], 98 % of control; under setting [2], 98 % of control; under setting [3], 94 % of control.

With `O=c1[nH]c(=S)[nH]cc1Oc1ccc(I)cc1`, the T/C is, setting by setting: (dose: 12.5 mg/kg/injection, schedule: Q01DX009 (ip), vehicle: Klucel (hydroxypropylcellulose) (HPC)) 90 % of control; under setting [8], 86 % of control; under setting [9], 91 % of control.

`CCS(=O)(=O)Nc1cccc(Nc2c3cccc(C)c3nc3c(C)cccc23)c1OC`: the T/C under setting [1] is 185 % of control; the T/C (dose: 12.5 mg/kg/injection, schedule: Q01DX009 (ip), vehicle: saline with Tween-80) is 203 % of control; the T/C under setting [12] is 87 % of control.

For the compound `C=CN1CCCC1=O`, the T/C was 109 % of control (dose: 178.0 mg/kg/injection, schedule: Q01DX009 (ip), vehicle: saline); 100 % of control (dose: 266.0 mg/kg/injection, schedule: Q01DX009 (ip), vehicle: saline); 104 % of control (dose: 400.0 mg/kg/injection, schedule: Q01DX009 (ip), vehicle: saline); 111 % of control (dose: 600.0 mg/kg/injection, schedule: Q01DX009 (ip), vehicle: saline); 108 % of control (dose: 750.0 mg/kg/injection, schedule: Q01DX009 (ip), vehicle: saline).

As to `CSCCCCCCSC`, the T/C under setting [9] was 93 % of control, the T/C under setting [2] is 105 % of control and the T/C under setting [3] was 106 % of control.

Regarding `CNC(Cc1ccccc1)C1CCCCC1` (configuration not stated), the T/C by setting is: (dose: 6.25 mg/kg/injection, schedule: Q04DX003 (ip), vehicle: Klucel (hydroxypropylcellulose) (HPC)) 102 % of control; (dose: 12.5 mg/kg/injection, schedule: Q04DX003 (ip), vehicle: Klucel (hydroxypropylcellulose) (HPC)) 100 % of control; (dose: 25.0 mg/kg/injection, schedule: Q04DX003 (ip), vehicle: Klucel (hydroxypropylcellulose) (HPC)) 96 % of control.

As to `[O-]c1cc2c3c(c1)c1cc4c(cc1c[n+]3C=C2)OCO4`, the T/C reads like this: (dose: 3.13 mg/kg/injection, schedule: Q01DX009 (ip), vehicle: water) 96 % of control; (dose: 6.25 mg/kg/injection, schedule: Q01DX009 (ip), vehicle: water) 121 % of control; (dose: 12.5 mg/kg/injection, schedule: Q01DX009 (ip), vehicle: water) 122 % of control; (dose: 25.0 mg/kg/injection, schedule: Q01DX009 (ip), vehicle: water) 124 % of control; (dose: 50.0 mg/kg/injection, schedule: Q01DX009 (ip), vehicle: water) 114 % of control.

Consider `C=CCNCCN1CCN(CCCN2c3ccccc3Sc3ccc(C(F)(F)F)cc32)CC1`, for which the T/C runs as follows: under setting [10], 105 % of control; (dose: 9.37 mg/kg/injection, schedule: Q04DX003 (ip), vehicle: saline) 100 % of control; under setting [11], 110 % of control; (dose: 18.75 mg/kg/injection, schedule: Q04DX003 (ip), vehicle: saline) 97 % of control; (dose: 55.0 mg/kg/injection, schedule: Q04DX003 (ip), vehicle: saline) 91 % of control.

`Cc1cccc(NC(=O)c2ccccc2)c1C`: the T/C was 99 % of control under setting [12], 99 % of control under setting [7] and 93 % of control under setting [4].

For the compound `COC(=O)C12Oc3ccc(-c4ccc5c(c4O)C(=O)C4=CCC(C)C(O)C4(C(=O)OC)O5)c(O)c3C(=O)C1=CCC(C)C2O` (configuration not stated), the T/C was 97 % of control (dose: 2.5 mg/kg/injection, schedule: Q01DX009 (ip), vehicle: saline with Tween-80); 86 % of control and 98 % of control (dose: 5.0 mg/kg/injection, schedule: Q01DX009 (ip), vehicle: saline with Tween-80); 88 % of control and 98 % of control (dose: 10.0 mg/kg/injection, schedule: Q01DX009 (ip), vehicle: saline with Tween-80).

As for `CCCCCCCCCCCCCCC/C([O-])=N/[N+](C)(C)CC(C)O` (configuration not stated), the T/C runs as follows: (dose: 25.0 mg/kg/injection, schedule: Q01DX001 (ip), vehicle: saline) 97 % of control; (dose: 50.0 mg/kg/injection, schedule: Q01DX001 (ip), vehicle: saline) 96 % of control; (dose: 100.0 mg/kg/injection, schedule: Q01DX001 (ip), vehicle: saline) 95 % of control; (dose: 200.0 mg/kg/injection, schedule: Q01DX001 (ip), vehicle: saline) 95 % of control.
